Tested on: LNCaP tumor-bearing mice
Assay: Biodistribution in LNCaP tumor-bearing mice
Settings: for AUCTu(0→48 h)-to-AUCKi(0→48 h) ratio: LNCaP model (male mice); for AUCTu(0→48 h)-to-AUCKi(0→48 h) ratio / AUC0→48h, Kidneys / AUC0→48h, LNCaP tumor: average ± SE, non-decay-corrected
[1] = LNCaP model, 4 h p.i., 0.05 nmol
[2] = LNCaP model, 4 h p.i., 1.0 nmol
[3] = LNCaP model, 24 h p.i., 0.05 nmol
[4] = LNCaP model, 24 h p.i., 1.0 nmol
[5] = LNCaP model, 48 h p.i., 0.05 nmol
[6] = LNCaP model, 48 h p.i., 1.0 nmol

SMILES: CC(C)Cc1ccc(C(C)C(=O)NC(CCN)C(=O)NCCCCC(NC(=O)CN2CCN(CC(=O)O)CCN(CC(=O)O)CCN(CC(=O)O)CC2)C(=O)NCC2CCC(C(=O)NC(Cc3ccc4ccccc4c3)C(=O)NCCCCC(NC(=O)NC(CCC(=O)O)C(=O)O)C(=O)O)CC2)cc1 (centres unmarked) [[^177Lu]Lu-Ibu-DAB-PSMA, metal not drawn]
- AUCTu(0→48 h)-to-AUCKi(0→48 h) ratio (0.05 nmol): 0.89 ± 0.25
- AUCTu(0→48 h)-to-AUCKi(0→48 h) ratio (1.0 nmol): 1.2 ± 0.2
- AUC0→48h, Kidneys (LNCaP model, 0.05 nmol): 815 ± 103 % IA/g*h
- AUC0→48h, LNCaP tumor (LNCaP model, 0.05 nmol): 721 ± 115 % IA/g*h
- Increase of tumor-to-kidney AUC0→48 h ratio for high vs low molar amount of injected ligand (LNCaP model, 1.0 nmol vs 0.05 nmol): 1.3 fold
- AUC0→48h, Kidneys (LNCaP model, 1.0 nmol): 349 ± 21 % IA/g*h
- AUC0→48h, LNCaP tumor (LNCaP model, 1.0 nmol): 402 ± 38 % IA/g*h
- Tissue distribution, Blood [1]: 1.6 ± 0.3 % IA/g
- Tissue distribution, Bone [1]: 0.63 ± 0.33 % IA/g
- Tissue distribution, Heart [1]: 0.61 ± 0.13 % IA/g
- Tissue distribution, Intestines [1]: 0.33 ± 0.03 % IA/g
- Tissue distribution, Kidneys [1]: 58 ± 10 % IA/g
- Tissue distribution, LNCaP tumor [1]: 18 ± 3 % IA/g
- Tissue distribution, Liver [1]: 1.3 ± 0.1 % IA/g
- Tissue distribution, Lung [1]: 1.4 ± 0.2 % IA/g
- Tissue distribution, Muscle [1]: 1.5 ± 1.9 % IA/g
- Tissue distribution, Salivary glands [1]: 0.59 ± 0.14 % IA/g
- Tissue distribution, Spleen [1]: 1.5 ± 0.4 % IA/g
- Tissue distribution, Stomach [1]: 0.32 ± 0.06 % IA/g
- Tumor-to-blood ratio [1]: 12 ± 1
- Tumor-to-kidney ratio [1]: 0.32 ± 0.03
- Tumor-to-liver ratio [1]: 14 ± 1
- Tissue distribution, Blood [2]: 0.87 ± 0.29 % IA/g
- Tissue distribution, Bone [2]: 0.39 ± 0.17 % IA/g
- Tissue distribution, Heart [2]: 0.41 ± 0.11 % IA/g
- Tissue distribution, Intestines [2]: 0.23 ± 0.05 % IA/g
- Tissue distribution, Kidneys [2]: 16 ± 1 % IA/g
- Tissue distribution, LNCaP tumor [2]: 12 ± 2 % IA/g
- Tissue distribution, Liver [2]: 0.82 ± 0.09 % IA/g
- Tissue distribution, Lung [2]: 0.78 ± 0.19 % IA/g
- Tissue distribution, Muscle [2]: 0.22 ± 0.14 % IA/g
- Tissue distribution, Salivary glands [2]: 0.38 ± 0.08 % IA/g
- Tissue distribution, Spleen [2]: 0.45 ± 0.08 % IA/g
- Tissue distribution, Stomach [2]: 0.22 ± 0.06 % IA/g
- Tumor-to-blood ratio [2]: 15 ± 5
- Tumor-to-kidney ratio [2]: 0.71 ± 0.10
- Tumor-to-liver ratio [2]: 14 ± 1
- Tissue distribution, Blood [3]: 0.16 ± 0.03 % IA/g
- Tissue distribution, Bone [3]: < 0.10 % IA/g
- Tissue distribution, Heart [3]: 0.11 ± 0.02 % IA/g
- Tissue distribution, Intestines [3]: 0.10 ± 0.01 % IA/g
- Tissue distribution, Kidneys [3]: 5.9 ± 1.5 % IA/g
- Tissue distribution, LNCaP tumor [3]: 18 ± 7 % IA/g
- Tissue distribution, Liver [3]: 0.48 ± 0.08 % IA/g
- Tissue distribution, Lung [3]: 0.24 ± 0.03 % IA/g
- Tissue distribution, Muscle [3]: < 0.10 % IA/g
- Tissue distribution, Salivary glands [3]: 0.18 ± 0.03 % IA/g
- Tissue distribution, Spleen [3]: 0.35 ± 0.06 % IA/g
- Tissue distribution, Stomach [3]: 0.13 ± 0.04 % IA/g
- Tumor-to-blood ratio [3]: 116 ± 37
- Tumor-to-kidney ratio [3]: 3.2 ± 1.1
- Tumor-to-liver ratio [3]: 39 ± 13
- Tissue distribution, Blood [4]: 0.19 ± 0.03 % IA/g
- Tissue distribution, Bone [4]: 0.14 ± 0.03 % IA/g
- Tissue distribution, Heart [4]: 0.12 ± 0.02 % IA/g
- Tissue distribution, Intestines [4]: 0.12 ± 0.03 % IA/g
- Tissue distribution, Kidneys [4]: 6.8 ± 1.1 % IA/g
- Tissue distribution, LNCaP tumor [4]: 8.8 ± 2.2 % IA/g
- Tissue distribution, Liver [4]: 0.45 ± 0.07 % IA/g
- Tissue distribution, Lung [4]: 0.23 ± 0.03 % IA/g
- Tissue distribution, Muscle [4]: < 0.10 % IA/g
- Tissue distribution, Salivary glands [4]: 0.16 ± 0.02 % IA/g
- Tissue distribution, Spleen [4]: 0.21 ± 0.06 % IA/g
- Tissue distribution, Stomach [4]: 0.23 ± 0.10 % IA/g
- Tumor-to-blood ratio [4]: 46 ± 12
- Tumor-to-kidney ratio [4]: 1.3 ± 0.2
- Tumor-to-liver ratio [4]: 20 ± 3
- Tissue distribution, Blood [5]: 0.10 ± 0.02 % IA/g
- Tissue distribution, Bone [5]: < 0.10 % IA/g
- Tissue distribution, Heart [5]: < 0.10 % IA/g
- Tissue distribution, Intestines [5]: < 0.10 % IA/g
- Tissue distribution, Kidneys [5]: 2.0 ± 0.3 % IA/g
- Tissue distribution, LNCaP tumor [5]: 16 ± 5 % IA/g
- Tissue distribution, Liver [5]: 0.50 ± 0.10 % IA/g
- Tissue distribution, Lung [5]: 0.16 ± 0.04 % IA/g
- Tissue distribution, Muscle [5]: < 0.10 % IA/g
- Tissue distribution, Salivary glands [5]: 0.11 ± 0.01 % IA/g
- Tissue distribution, Spleen [5]: 0.31 ± 0.08 % IA/g
- Tissue distribution, Stomach [5]: < 0.10 % IA/g
- Tumor-to-blood ratio [5]: 155 ± 31
- Tumor-to-kidney ratio [5]: 7.7 ± 1.7
- Tumor-to-liver ratio [5]: 32 ± 7
- Tissue distribution, Blood [6]: 0.09 ± 0.02 % IA/g
- Tissue distribution, Bone [6]: < 0.10 % IA/g
- Tissue distribution, Heart [6]: < 0.10 % IA/g
- Tissue distribution, Intestines [6]: < 0.10 % IA/g
- Tissue distribution, Kidneys [6]: 2.4 ± 0.5 % IA/g
- Tissue distribution, LNCaP tumor [6]: 9.5 ± 1.1 % IA/g
- Tissue distribution, Liver [6]: 0.57 ± 0.09 % IA/g
- Tissue distribution, Lung [6]: 0.14 ± 0.03 % IA/g
- Tissue distribution, Muscle [6]: < 0.10 % IA/g
- Tissue distribution, Salivary glands [6]: < 0.10 % IA/g
- Tissue distribution, Spleen [6]: 0.24 ± 0.04 % IA/g
- Tissue distribution, Stomach [6]: < 0.10 % IA/g
- Tumor-to-blood ratio [6]: 105 ± 14
- Tumor-to-kidney ratio [6]: 4.2 ± 0.7
- Tumor-to-liver ratio [6]: 17 ± 2
- Tissue distribution, Blood (LNCaP model, 48 h p.i., 1.0 nmol, listed as [177Lu]Lu-Ibu-DAB-PSMA): < 0.10 % IA/g

Reference: article PMC8803738, “Impact of the mouse model and molar amount of injected ligand on the tissue distribution profile of PSMA radioligands” (European Journal of Nuclear Medicine and Molecular Imaging, 2021)
